Our source for the EC50 values is ChEMBL document CHEMBL3632477 (2015).

Where a SMILES comes first, the peptide text is derived from it. Bridges are numbered along the chain shown (N, C = ends). [ ]: non-standard residue; d: D form. ξ: configuration not given here. Bip(2'-Et-4'-OMe) = CCc1cc(OC)ccc1-c1ccc(C[C@H](N)C(=O)O)cc1; αMePhe(2,6-F2) = C[C@](N)(Cc1c(F)cccc1F)C(=O)O; ξαMePhe(2,6-F2) = CC(N)(Cc1c(F)cccc1F)C(=O)O; Bip = N[C@@H](Cc1ccc(-c2ccccc2)cc1)C(=O)O; αMePhe(2-F) = C[C@](N)(Cc1ccccc1F)C(=O)O; hhPhe = N[C@@H](CCCc1ccccc1)C(=O)O; αMeF = C[C@](N)(Cc1ccccc1)C(=O)O; Aib = CC(C)(N)C(=O)O

For the experiment, the target named is Glucagon-like peptide 1 receptor (Homo sapiens, UniProt P43220). The experiment is described as follows: Agonist activity at human GLP-1R expressed in CHO-K1 cells assessed as increase in cAMP level incubated for 30 mins. The class given is functional, cell-based. On the technique in general: Changes in cAMP serve as a functional read-out for many G protein-coupled receptors.
Chain of Glucagon-like peptide 1 receptor (P43220 whole entry): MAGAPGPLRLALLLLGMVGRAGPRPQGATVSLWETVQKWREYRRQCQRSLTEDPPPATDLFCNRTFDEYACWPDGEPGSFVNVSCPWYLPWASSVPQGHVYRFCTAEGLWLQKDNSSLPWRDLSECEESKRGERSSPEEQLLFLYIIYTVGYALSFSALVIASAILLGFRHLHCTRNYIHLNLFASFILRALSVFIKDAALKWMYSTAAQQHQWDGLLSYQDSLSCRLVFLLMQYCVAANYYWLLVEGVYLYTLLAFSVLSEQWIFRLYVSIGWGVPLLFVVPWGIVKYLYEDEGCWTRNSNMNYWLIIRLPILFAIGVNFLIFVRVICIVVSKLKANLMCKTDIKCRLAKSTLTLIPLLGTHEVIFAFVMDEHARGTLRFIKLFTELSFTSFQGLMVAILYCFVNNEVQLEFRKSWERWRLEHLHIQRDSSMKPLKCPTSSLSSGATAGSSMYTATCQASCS

A word on the EC50: it is the concentration at which the effect is half-maximal. As to `CCc1cc(OC)ccc1-c1ccc(C[C@@H]2NC(=O)[C@H](CC(=O)O)NC(=O)[C@H](CO)NC(=O)[C@@H]3CSSC[C@@H](C(=O)O)NC(=O)[C@H](CSSC[C@H](NC(=O)CNC(=O)[C@H](CCC(=O)O)NC(=O)C(C)(C)NC(=O)[C@@H](N)Cc4cnc[nH]4)C(=O)N[C@@](C)(Cc4c(F)cccc4F)C(=O)N3)NC(=O)[C@H](Cc3ccc(-c4ccccc4)cc3)NC(=O)[C@H](CCCc3ccccc3)NC2=O)cc1` (H-H[Aib]EGC[αMePhe(2,6-F2)]CSD[Bip(2'-Et-4'-OMe)][hhPhe][Bip]CC-OH; disulfide 5-13, 7-14), the EC50 worked out at 7.5 µM.

As for `CCc1cc(OC)ccc1-c1ccc(C[C@@H]2NC(=O)[C@H](CC(=O)O)NC(=O)[C@H](CO)NC(=O)[C@@H]3CSSC[C@@H](C(=O)O)NC(=O)[C@H](CSSC[C@H](NC(=O)CNC(=O)[C@H](CCC(=O)O)NC(=O)C(C)(C)NC(=O)[C@@H](N)Cc4cnc[nH]4)C(=O)NC(C)(Cc4c(F)cccc4F)C(=O)N3)NC(=O)[C@H](CC(C)C)NC(=O)[C@H](CCCc3ccccc3)NC2=O)cc1` (stereo not given in full) (H-H[Aib]EGC[ξαMePhe(2,6-F2)]CSD[Bip(2'-Et-4'-OMe)][hhPhe]LCC-OH; disulfide 5-13, 7-14), the EC50 came to 0.43 µM. Under `CCc1cc(OC)ccc1-c1ccc(C[C@H](NC(=O)[C@H](CC(=O)O)NC(=O)[C@H](CO)NC(=O)[C@@H](NC(=O)[C@](C)(Cc2ccccc2)NC(=O)[C@@H](NC(=O)CNC(=O)[C@H](CCC(=O)O)NC(=O)[C@@H]2CCCN2C(=O)[C@@H](N)Cc2cnc[nH]2)[C@@H](C)O)[C@@H](C)O)C(=O)N[C@@H](CCCc2ccccc2)C(=O)N[C@H]2CSSC[C@@H](C(=O)N[C@@H](CO)C(=O)O)NC(=O)[C@H](CC(C)C)NC(=O)[C@H](CC(C)C)NC(=O)CNC(=O)[C@H](CC(C)C)NC(=O)[C@H](CC(C)C)NC(=O)[C@H](CC(C)C)NC(=O)CNC(=O)CNC2=O)cc1` (H-HPEGT[αMeF]TSD[Bip(2'-Et-4'-OMe)][hhPhe]CGGLLLGLLCS-OH; disulfide 12-21) stands 0.13 µM.

For `CCc1cc(OC)ccc1-c1ccc(C[C@@H]2NC(=O)[C@H](CC(=O)O)NC(=O)[C@H](CO)NC(=O)[C@H]([C@@H](C)O)NC(=O)[C@](C)(Cc3ccccc3)NC(=O)[C@H]([C@@H](C)O)NC(=O)CNC(=O)[C@H](CCC(=O)O)NC(=O)[C@@H]3CCCN3C(=O)[C@H](Cc3cnc[nH]3)NC(=O)[C@H](CO)NC(=O)[C@@H]3CSSC[C@H](NC(=O)[C@H](CCCc4ccccc4)NC2=O)C(=O)NCC(=O)N[C@@H](Cc2ccc(-c4ccccc4)cc2)C(=O)N[C@@H](C)C(=O)N[C@@H](C)C(=O)NCC(=O)NCC(=O)NCC(=O)N[C@@H](C)C(=O)N3)cc1` (cyclo(AAGGGACSHPEGT[αMeF]TSD[Bip(2'-Et-4'-OMe)][hhPhe]CG[Bip]); disulfide 7-20), the EC50 turned out to be 0.36 µM. In the case of `CCc1cc(OC)ccc1-c1ccc(C[C@H](NC(=O)[C@H](CS)NC(=O)[C@H](CO)NC(=O)[C@@H](NC(=O)[C@](C)(Cc2ccccc2F)NC(=O)[C@H](CS)NC(=O)CNC(=O)[C@H](CCC(=O)O)NC(=O)C(C)(C)NC(=O)[C@@H](N)Cc2cnc[nH]2)[C@@H](C)O)C(=O)N[C@@H](CCCc2ccccc2)C(N)=O)cc1` (H-H[Aib]EGC[αMePhe(2-F)]TSC[Bip(2'-Et-4'-OMe)][hhPhe]-NH2) it was 0.85 µM.

For the compound `CCc1cc(OC)ccc1-c1ccc(C[C@H](NC(=O)[C@H](CC(=O)O)NC(=O)[C@H](CO)NC(=O)[C@@H](NC(=O)[C@](C)(Cc2ccccc2)NC(=O)[C@@H](NC(=O)CNC(=O)[C@H](CCC(=O)O)NC(=O)[C@@H]2CCCN2C(=O)[C@@H](N)Cc2cnc[nH]2)[C@@H](C)O)[C@@H](C)O)C(=O)N[C@@H](CCCc2ccccc2)C(=O)N[C@H]2CSSC[C@@H](C(=O)N[C@@H](CO)C(=O)O)NC(=O)[C@H](C)NC(=O)CNC(=O)CNC(=O)CNC(=O)[C@H](C)NC(=O)[C@H](C)NC(=O)[C@H](Cc3ccc(-c4ccccc4)cc3)NC(=O)CNC2=O)cc1` (H-HPEGT[αMeF]TSD[Bip(2'-Et-4'-OMe)][hhPhe]CG[Bip]AAGGGACS-OH; disulfide 12-21), the EC50 is 0.047 µM. As to `CCc1cc(OC)ccc1-c1ccc(C[C@H](NC(=O)[C@H](CC(=O)O)NC(=O)[C@H](CO)NC(=O)[C@@H](NC(=O)[C@](C)(Cc2c(F)cccc2F)NC(=O)[C@@H](NC(=O)CNC(=O)[C@H](CCC(=O)O)NC(=O)[C@@H]2CCCN2C(=O)[C@@H](N)Cc2cnc[nH]2)[C@@H](C)O)[C@@H](C)O)C(=O)N[C@@H](CCCc2ccccc2)C(=O)N[C@H]2CSSC[C@@H](C(=O)N[C@@H](CO)C(=O)O)NC(=O)[C@H](C(C)C)NC(=O)[C@H](C(C)C)NC(=O)CNC(=O)[C@H](C(C)C)NC(=O)[C@H](C(C)C)NC(=O)[C@H](C(C)C)NC(=O)CNC(=O)CNC2=O)cc1` (H-HPEGT[αMePhe(2,6-F2)]TSD[Bip(2'-Et-4'-OMe)][hhPhe]CGGVVVGVVCS-OH; disulfide 12-21), the EC50 was 0.019 µM.

Consider `CCc1cc(OC)ccc1-c1ccc(C[C@@H]2NC(=O)[C@H](CC(=O)O)NC(=O)[C@H](CO)NC(=O)[C@H]([C@@H](C)O)NC(=O)[C@](C)(Cc3ccccc3F)NC(=O)[C@H]([C@@H](C)O)NC(=O)CNC(=O)[C@H](CCC(=O)O)NC(=O)[C@@H]3CCCN3C(=O)[C@H](Cc3cnc[nH]3)NC(=O)[C@H](CO)NC(=O)[C@@H]3CSSC[C@H](NC(=O)[C@H](CCCc4ccccc4)NC2=O)C(=O)NCC(=O)NCC(=O)N[C@@H](C)C(=O)N[C@@H](C)C(=O)NCC(=O)NCC(=O)NCC(=O)N[C@@H](C)C(=O)N3)cc1` (cyclo(AAGGGACSHPEGT[αMePhe(2-F)]TSD[Bip(2'-Et-4'-OMe)][hhPhe]CGG); disulfide 7-20), for which the EC50 stood at 1 µM. In the case of `CCc1cc(OC)ccc1-c1ccc(C[C@@H]2NC(=O)[C@H](CC(=O)O)NC(=O)[C@H](CO)NC(=O)[C@H]([C@@H](C)O)NC(=O)[C@](C)(Cc3ccccc3)NC(=O)[C@H]([C@@H](C)O)NC(=O)CNC(=O)[C@H](CCC(=O)O)NC(=O)[C@@H]3CCCN3C(=O)[C@H](Cc3cnc[nH]3)NC(=O)[C@H](CO)NC(=O)[C@@H]3CSSC[C@H](NC(=O)[C@H](CCCc4ccccc4)NC2=O)C(=O)NCC(=O)NCC(=O)N[C@@H](CC(C)C)C(=O)N[C@@H](CC(C)C)C(=O)N[C@@H](CC(C)C)C(=O)NCC(=O)N[C@@H](CC(C)C)C(=O)N[C@@H](CC(C)C)C(=O)N3)cc1` (cyclo(CGGLLLGLLCSHPEGT[αMeF]TSD[Bip(2'-Et-4'-OMe)][hhPhe]); disulfide 1-10) it was 2.8 µM; in that of `CCc1cc(OC)ccc1-c1ccc(C[C@@H]2NC(=O)[C@H](CC(=O)O)NC(=O)[C@H](CO)NC(=O)[C@H]([C@@H](C)O)NC(=O)[C@](C)(Cc3ccccc3)NC(=O)[C@H]([C@@H](C)O)NC(=O)CNC(=O)[C@H](CCC(=O)O)NC(=O)[C@@H]3CCCN3C(=O)[C@H](Cc3cnc[nH]3)NC(=O)[C@H](CO)NC(=O)[C@@H]3CSSC[C@H](NC(=O)[C@H](CCCc4ccccc4)NC2=O)C(=O)NCC(=O)NCC(=O)N[C@@H](C)C(=O)N[C@@H](C)C(=O)NCC(=O)NCC(=O)NCC(=O)N[C@@H](C)C(=O)N3)cc1` (cyclo(AAGGGACSHPEGT[αMeF]TSD[Bip(2'-Et-4'-OMe)][hhPhe]CGG); disulfide 7-20), 2 µM.
